From ChEMBL document CHEMBL4431314, “Computer-aided drug design guided by hydrogen/deuterium exchange mass spectrometry: A powerful combination for the development of potent and selective inhibitors of Group VIA calcium-independent phospholipase A2” (Bioorg Med Chem, 2016)

biological target: T1, 85/88 kDa calcium-independent phospholipase A2 (Homo sapiens) (UniProt O60733); assay: Inhibition of N-terminal 6xHis-tag human group VIA calcium-independent PLA2 expressed in fall armyworm sf9 cells at 0.091 mol fraction using PAPC/arachidonyl-1-14C PAPC as substrate by mixed micelle modified Dole assay
T1 sequence (whole entry): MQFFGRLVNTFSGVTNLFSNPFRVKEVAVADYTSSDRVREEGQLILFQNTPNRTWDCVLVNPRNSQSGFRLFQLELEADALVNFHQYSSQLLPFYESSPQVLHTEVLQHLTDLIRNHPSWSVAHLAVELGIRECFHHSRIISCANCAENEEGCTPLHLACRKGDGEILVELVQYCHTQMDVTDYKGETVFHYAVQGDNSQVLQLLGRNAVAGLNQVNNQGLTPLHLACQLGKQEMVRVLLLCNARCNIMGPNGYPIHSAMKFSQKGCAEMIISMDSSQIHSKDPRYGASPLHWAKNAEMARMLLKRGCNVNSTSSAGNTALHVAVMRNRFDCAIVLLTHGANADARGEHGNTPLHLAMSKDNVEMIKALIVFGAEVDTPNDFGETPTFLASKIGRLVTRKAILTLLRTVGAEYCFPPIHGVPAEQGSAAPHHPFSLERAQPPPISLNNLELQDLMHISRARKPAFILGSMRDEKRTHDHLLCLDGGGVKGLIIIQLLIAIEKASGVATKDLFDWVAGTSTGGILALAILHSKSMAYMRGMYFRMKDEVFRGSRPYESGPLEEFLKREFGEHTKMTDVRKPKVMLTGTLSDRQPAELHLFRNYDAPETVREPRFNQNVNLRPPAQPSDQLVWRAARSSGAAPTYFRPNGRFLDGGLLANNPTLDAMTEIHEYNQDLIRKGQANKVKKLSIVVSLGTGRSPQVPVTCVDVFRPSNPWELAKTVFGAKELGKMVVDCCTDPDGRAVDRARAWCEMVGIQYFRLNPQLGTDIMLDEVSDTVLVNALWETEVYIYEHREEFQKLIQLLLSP

First: CCCCCCS(=O)(=O)CC(O)(O)C(F)(F)F
Second: CCCCCCCCS(=O)(=O)CC(O)(O)C(F)(F)F
The inhibition of the first is lower: 71% for the first, 82% for the second.

First: CCCCSCC(=O)C(F)(F)F
Second: CCCCCCOCC(O)C(F)(F)F (configuration not stated)
The inhibition of the first is higher: 91% for the first, 43% for the second.

Compared with `COc1ccc(SCC(=O)C(F)(F)F)cc1`, `O=C(CSc1ccc(Cl)cc1)C(F)(F)F` is higher in inhibition: 93% for the first, 95% for the second.

Compared with `O=C(CSc1ccc([N+](=O)[O-])cc1)C(F)(F)F`, `O=C(CSc1ccc(F)cc1)C(F)(F)F` is lower in inhibition: 52% for the first, 46% for the second.

Compared with `O=C(CSc1cccc(Cl)c1)C(F)(F)F`, `O=C(CSc1ccccc1)C(F)(F)F` is lower in inhibition: 98% for the first, 89% for the second.

First: CCCCCCCCS(=O)(=O)CC(O)C(F)(F)F (configuration not stated)
Second: CCCCCCCCCCCCS(=O)(=O)CC(O)C(F)(F)F (configuration not stated)
The inhibition of the first is lower: 24% for the first, 32% for the second.

`O=C(C[Se]c1ccccc1)C(F)(F)F` gave an inhibition of 46%.

Compared with `CCCCSCC(=O)C(F)(F)F`, `COc1ccc(SCC(=O)C(F)(F)F)cc1` is higher in pXI50: 1.2 for the first, 2 for the second.

`O=C(CSc1ccc(Cl)cc1)C(F)(F)F` and `O=C(CSc1cccc(Cl)c1)C(F)(F)F` are the same in pXI50: 2 for the first, 2 for the second.

biological target: T1, 85/88 kDa calcium-independent phospholipase A2 (Homo sapiens); assay: Inhibition of N-terminal 6xHis-tag human group VIA calcium-independent PLA2 expressed in fall armyworm sf9 cells using PAPC/arachidonyl-1-14C PAPC as substrate by mixed micelle modified Dole assay

Going from `CCCCSCC(=O)C(F)(F)F` to `COc1ccc(SCC(=O)C(F)(F)F)cc1`, the XI50 (mole fraction) falls from 0.07 to 0.011.

`O=C(CSc1ccc(Cl)cc1)C(F)(F)F` and `O=C(CSc1cccc(Cl)c1)C(F)(F)F` are the same in XI50 (mole fraction): 0.011 for the first, 0.011 for the second.

biological target: T2, Cytosolic phospholipase A2 (Homo sapiens) (UniProt P47712); assay: Inhibition of C-terminal 6xHis-tagged human group IVA cytosolic PLA2 expressed in fall armyworm sf9 cells at 0.091 mol fraction using PAPC/arachidonyl-1-14C PAPC as substrate by mixed micelle modified Dole assay
T2 sequence (whole entry): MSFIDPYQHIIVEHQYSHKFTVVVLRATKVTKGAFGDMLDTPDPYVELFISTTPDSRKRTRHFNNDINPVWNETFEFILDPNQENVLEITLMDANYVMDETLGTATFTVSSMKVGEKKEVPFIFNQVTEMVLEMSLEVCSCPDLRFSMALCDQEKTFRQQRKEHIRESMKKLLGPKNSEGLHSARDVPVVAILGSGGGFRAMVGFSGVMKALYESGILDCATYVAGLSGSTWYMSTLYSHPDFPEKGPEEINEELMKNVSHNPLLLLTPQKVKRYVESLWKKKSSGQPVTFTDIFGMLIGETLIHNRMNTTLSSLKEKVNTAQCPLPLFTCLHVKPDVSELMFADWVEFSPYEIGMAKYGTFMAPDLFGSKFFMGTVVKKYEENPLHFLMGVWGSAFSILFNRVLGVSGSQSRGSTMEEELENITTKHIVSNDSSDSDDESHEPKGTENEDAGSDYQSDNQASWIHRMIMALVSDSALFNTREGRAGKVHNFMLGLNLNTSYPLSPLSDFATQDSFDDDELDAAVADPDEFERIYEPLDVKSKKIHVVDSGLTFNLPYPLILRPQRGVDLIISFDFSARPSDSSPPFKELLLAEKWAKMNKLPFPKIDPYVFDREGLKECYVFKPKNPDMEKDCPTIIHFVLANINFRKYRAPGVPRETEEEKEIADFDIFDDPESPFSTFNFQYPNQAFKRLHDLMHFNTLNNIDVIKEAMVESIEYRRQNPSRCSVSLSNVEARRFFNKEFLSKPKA

First: CCCCCCS(=O)(=O)CC(O)(O)C(F)(F)F
Second: CCCCCCCCS(=O)(=O)CC(O)(O)C(F)(F)F
The inhibition of the first is lower: 14% for the first, 19% for the second.

Going from `CCCCSCC(=O)C(F)(F)F` to `CCCCCCOCC(O)C(F)(F)F` (configuration not stated), the inhibition rises from 46% to 58%.

First: COc1ccc(SCC(=O)C(F)(F)F)cc1
Second: O=C(CSc1ccc(Cl)cc1)C(F)(F)F
The inhibition of the first is lower: 70% for the first, 82% for the second.

Compared with `O=C(CSc1ccc([N+](=O)[O-])cc1)C(F)(F)F`, `O=C(CSc1ccc(F)cc1)C(F)(F)F` is lower in inhibition: 26% for the first, 24% for the second.

Compared with `O=C(CSc1cccc(Cl)c1)C(F)(F)F`, `O=C(CSc1ccccc1)C(F)(F)F` is lower in inhibition: 91% for the first, 75% for the second.

First: CCCCCCCCS(=O)(=O)CC(O)C(F)(F)F (configuration not stated)
Second: CCCCCCCCCCCCS(=O)(=O)CC(O)C(F)(F)F (configuration not stated)
The inhibition of the first is higher: 5% for the first, 2% for the second.

In the case of `O=C(C[Se]c1ccccc1)C(F)(F)F`, the inhibition is reported as 18%.

organism: Homo sapiens; assay: Inhibition of His-tagged human group V human secretory PLA2 expressed in Escherichia coli BL21 cells at 0.091 mol fraction using PAPC/arachidonyl-1-14C PAPC as substrate by mixed micelle modified Dole assay

Going from `CCCCCCS(=O)(=O)CC(O)(O)C(F)(F)F` to `CCCCCCCCS(=O)(=O)CC(O)(O)C(F)(F)F`, the inhibition rises from 0% to 18%.

First: CCCCSCC(=O)C(F)(F)F
Second: CCCCCCOCC(O)C(F)(F)F (configuration not stated)
The inhibition of the first is lower: 14% for the first, 35% for the second.

First: COc1ccc(SCC(=O)C(F)(F)F)cc1
Second: O=C(CSc1ccc(Cl)cc1)C(F)(F)F
The inhibition of the first is lower: 16% for the first, 23% for the second.

Going from `O=C(CSc1ccc([N+](=O)[O-])cc1)C(F)(F)F` to `O=C(CSc1ccc(F)cc1)C(F)(F)F`, the inhibition falls from 17% to 14%.

First: O=C(CSc1cccc(Cl)c1)C(F)(F)F
Second: O=C(CSc1ccccc1)C(F)(F)F
The inhibition of the first is higher: 46% for the first, 27% for the second.

First: CCCCCCCCS(=O)(=O)CC(O)C(F)(F)F (configuration not stated)
Second: CCCCCCCCCCCCS(=O)(=O)CC(O)C(F)(F)F (configuration not stated)
The inhibition of the first is lower: 23% for the first, 80% for the second.

In the case of `O=C(C[Se]c1ccccc1)C(F)(F)F`, the inhibition is reported as 44%.
